Test results: patent publication US20230095926A1, “PARASITE CONTROL IN RUMINANTS” (Intervet Inc., priority 2019, published 2023)

Assays:
[1] = tested on: sheep body lice (Bovicola ovis), benzoyl phenyl urea (IGR) resistant; experiment: Efficacy long wool lice study, single subcutaneous injection, Merino ewes with 7 months wool growth; settings: for Geometric efficacy (%) Day 7 / Geometric efficacy (%) Day 14 / Geometric efficacy (%) Day 21 / Geometric efficacy (%) Day 42 / Geometric efficacy (%) Day 84 / Geometric efficacy (%) Day 140: long wool sheep, Henderson-Tilton
[2] = tested on: biting/chewing lice (Bovicola bovis); experiment: Biting lice efficacy study in cattle, natural infestation, single subcutaneous injection; type: in vivo; settings: 1 mg/kg s.c.
Method: This study determined the efficacy (via reductions in total lice counts) of fluralaner in an injectable suspension formulation against natural infestations of cattle sucking (Haematopinus eurysternus, Linognathus vituli) and biting/chewing lice (Bovicola bovis) when applied at a single dose to young, lice infested cattle. Treatment efficacy was determined by whole body lice counts post treatment and comparison of treated and untreated (placebo) group mean lice counts. The naturally acquired louse infestations consisted of 2 species of sucking lice (Haematopinus eurysternus and Linognathus vituli) and the biting louse Bovicola bovis. Each animal was examined in a cattle crush prior to being selected from the parent mob to ensure that more than 30 sucking lice (combined total of both sucking lice species) were present. Fluralaner at a dose level of 1.0 mg/kg bw and Control Product were administered to cattle by subcutaneous injection. The numbers of live adults and live nymphs for each species of lice on each animal were counted at 7-day intervals starting with pre-treatment counts on Day −1 and post-treatment on Days 7, 14, 21, 28, 35, 42, 49 and 56.

[3] = tested on: sheep body lice (Bovicola ovis), diazinon resistant; experiment: Off-shears/short wool lice efficacy study, single subcutaneous dose, Merino sheep; type: in vivo; settings: for Sheep Body Lice Efficacy Based on Geometric Means Day 7: Day 7 post-treatment; for Sheep Body Lice Efficacy Based on Geometric Means Day 14: Day 14 post-treatment; for Sheep Body Lice Efficacy Based on Geometric Means Day 21: Day 21 post-treatment; for Sheep Body Lice Efficacy Based on Geometric Means Day 41/42: Day 41/42 post-treatment; for Sheep Body Lice Efficacy Based on Geometric Means Day 84: Day 84 post-treatment; for Sheep Body Lice Efficacy Based on Geometric Means Day 140: Day 140 post-treatment
Method: In this study the efficacy of fluralaner when administered once subcutaneously at doses of 1 and 2 mg/kg body weight within 1 week prior to shearing, within 24 hours after shearing and 6 weeks after shearing against sheep body lice (Bovicola ovis) infestation on Merino sheep was evaluated.
Fluralaner was administered to sheep in Groups 2 and 3 seven days pre-shearing, Groups 4 and 5 within 24 hours after shearing and Groups 6 and 7 forty-two days post-shearing at either 1 mg/kg (Group 2, 4 and 6) or 2 mg/kg (Group 3, 5 and 7). Group 1 was left untreated as a negative control. All sheep were shorn on Day 0.
Lice counts were conducted on all sheep on Day −8 to −7 for allocation. Pre-treatment lice counts were conducted on Groups 2 and 3 on Day −8 to −7 (i.e. allocation counts), on Group 4 and 5 on Day −1 (pre-shearing) and on Group 6 and 7 on Day 41 (post-shearing). Post-treatment lice counts were conducted 7, 14, 21, 42, 84 and 140 days±1-day post-treatment. Group 1 was counted on each day that a lice count was conducted on a treated group for comparison purposes. Lice counts were performed as described in Example 1.

[4] = tested on: sheep body lice (Bovicola ovis); experiment: Persistency determination, lice challenge of treated lice free Merino sheep with 5 months wool growth; type: in vivo; settings: 3.0 mg/kg s.c., Day 21-28 challenge, counts 7, 14, 21, 42 and 84 days post-challenge
Method: In this study the persistent efficacy of fluralaner when administered once subcutaneously at doses of 1.0, 2.0 and 3.0 mg/kg body weight against sheep body lice (Bovicola ovis) infestation on Merino sheep with 5 months wool growth was evaluated.
Fluralaner was administered to sheep in three groups each at 1.0, 2.0 and 3.0 mg fluralaner/kg bodyweight. The dose was administered subcutaneously. Three groups were left untreated as negative control groups.
From Day 21-28, 49-56 and Day 77-84 post-treatment one group of untreated negative control sheep and one group of sheep treated at 1.0, 2.0 and 3.0 mg/kg were challenged with lice by close confinement with lice infested sheep and manual transfer of lice. Following the challenges lice counts were conducted 7, 14, 21, 42 and 84 days±1-day post-challenge (not all counts conducted for all challenges).

[5] = tested on: sheep body lice (Bovicola ovis), diazinon resistant; experiment: Long wool lice efficacy study, single subcutaneous dose, Merino sheep with 3 months wool growth; type: in vivo
Method: In this study the efficacy of fluralaner when administered once subcutaneously at doses of 1 and 2 mg/kg body weight against sheep body lice (Bovicola ovis) infestation on Merino sheep with 3 months wool growth was evaluated.
Fluralaner was administered to sheep in Groups 2 and 3 on Day 0 at 1 and 2 mg fluralaner/kg bodyweight respectively. Group 1 was left untreated as a negative control.
Pre-treatment lice counts were conducted on Day −1 and used to allocate sheep to treatment groups. Post-treatment lice counts were conducted 7, 14, 21, 42, 84 and 140 days±1-day post-treatment. Lice counts were performed as discussed in Example 1.

[6] = 1 mg/kg s.c., treated 7 days pre-shearing
[7] = 1 mg/kg s.c., treated 42 days post-shearing
[8] = 1 mg/kg s.c., treated within 24 hours after shearing
[9] = 2 mg/kg s.c., treated 7 days pre-shearing
[10] = 2 mg/kg s.c., treated 42 days post-shearing
[11] = 2 mg/kg s.c., treated within 24 hours after shearing

Cc1cc(C2=NOC(c3cc(Cl)cc(Cl)c3)(C(F)(F)F)C2)ccc1C(=O)NCC(=O)NCC(F)(F)F (stereo not drawn) [Fluralaner, 4-[5-(3,5-dichlorophenyl)-5-trifluoromethyl-4,5-dihydroisoxazol-3-yl]-2-methyl-N-[(2,2,2-trifluoro-ethylcarbamoyl)-methyl]-benzamide]
Geometric efficacy (%) Day 7 ([1]; 1.0 mg/kg s.c. once): 99.4% | Geometric efficacy (%) Day 14 ([1]; 1.0 mg/kg s.c. once): 99.9% | Geometric efficacy (%) Day 21 ([1]; 1.0 mg/kg s.c. once): 100.0% | Geometric efficacy (%) Day 42 ([1]; 1.0 mg/kg s.c. once): 100.0% | Geometric efficacy (%) Day 84 ([1]; 1.0 mg/kg s.c. once): 100.0% | Geometric efficacy (%) Day 140 ([1]; 1.0 mg/kg s.c. once): 100.0% | Geometric efficacy (%) Day 7 ([1]; 2.0 mg/kg s.c. once): 99.6% | Geometric efficacy (%) Day 14 ([1]; 2.0 mg/kg s.c. once): 100.0% | Geometric efficacy (%) Day 21 ([1]; 2.0 mg/kg s.c. once): 100.0% | Geometric efficacy (%) Day 42 ([1]; 2.0 mg/kg s.c. once): 100.0% | Geometric efficacy (%) Day 84 ([1]; 2.0 mg/kg s.c. once): 100.0% | Geometric efficacy (%) Day 140 ([1]; 2.0 mg/kg s.c. once): 100.0% | Geometric efficacy (%) Day 7 ([1]; 3.0 mg/kg s.c. once): 99.6% | Geometric efficacy (%) Day 14 ([1]; 3.0 mg/kg s.c. once): 100.0% | Geometric efficacy (%) Day 21 ([1]; 3.0 mg/kg s.c. once): 100.0% | Geometric efficacy (%) Day 42 ([1]; 3.0 mg/kg s.c. once): 100.0% | Geometric efficacy (%) Day 84 ([1]; 3.0 mg/kg s.c. once): 100.0% | Geometric efficacy (%) Day 140 ([1]; 3.0 mg/kg s.c. once): 100.0% | treatment related adverse events or health problems ([1]; sheep, 1, 2 and 3 mg/kg s.c., throughout the duration of the trial): No treatment related adverse events or health problems occurred | efficacy against the biting lice B. bovis ([2]; Day 7): 91.74% | efficacy against the biting lice B. bovis ([2]; by Day 14): 100% | lice found on treated cattle ([2]; from Day 21 until Day 56): no lice of any species found | Sheep Body Lice Efficacy Based on Geometric Means Day 7 [3, 6]: 93.9% | Sheep Body Lice Efficacy Based on Geometric Means Day 14 [3, 6]: 97.7% | Sheep Body Lice Efficacy Based on Geometric Means Day 21 [3, 6]: 99.7% | Sheep Body Lice Efficacy Based on Geometric Means Day 41/42 [3, 6]: 100.0% | Sheep Body Lice Efficacy Based on Geometric Means Day 84 [3, 6]: 100.0% | Sheep Body Lice Efficacy Based on Geometric Means Day 140 [3, 6]: 100.0% | Sheep Body Lice Efficacy Based on Geometric Means Day 7 [3, 7]: 94.4% | Sheep Body Lice Efficacy Based on Geometric Means Day 14 [3, 7]: 99.5% | Sheep Body Lice Efficacy Based on Geometric Means Day 21 [3, 7]: 100.0% | Sheep Body Lice Efficacy Based on Geometric Means Day 41/42 [3, 7]: 100.0% | Sheep Body Lice Efficacy Based on Geometric Means Day 84 [3, 7]: 100.0% | Sheep Body Lice Efficacy Based on Geometric Means Day 140 [3, 7]: 100.0% | Sheep Body Lice Efficacy Based on Geometric Means Day 7 [3, 8]: 39.5% | Sheep Body Lice Efficacy Based on Geometric Means Day 14 [3, 8]: 83.1% | Sheep Body Lice Efficacy Based on Geometric Means Day 21 [3, 8]: 98.8% | Sheep Body Lice Efficacy Based on Geometric Means Day 41/42 [3, 8]: 99.9% | Sheep Body Lice Efficacy Based on Geometric Means Day 84 [3, 8]: 100.0% | Sheep Body Lice Efficacy Based on Geometric Means Day 140 [3, 8]: 100.0% | time until efficacy reached the required level (no lice detected) ([3]; 2.0 mg/kg dose rate, all wool lengths except off-shears): ≤ 14 days post-treatment | Sheep Body Lice Efficacy Based on Geometric Means Day 7 [3, 9]: 96.7% | Sheep Body Lice Efficacy Based on Geometric Means Day 14 [3, 9]: 100.0% | Sheep Body Lice Efficacy Based on Geometric Means Day 21 [3, 9]: 100.0% | Sheep Body Lice Efficacy Based on Geometric Means Day 41/42 [3, 9]: 100.0% | Sheep Body Lice Efficacy Based on Geometric Means Day 84 [3, 9]: 100.0% | Sheep Body Lice Efficacy Based on Geometric Means Day 140 [3, 9]: 100.0% | Sheep Body Lice Efficacy Based on Geometric Means Day 7 [3, 10]: 96.8% | Sheep Body Lice Efficacy Based on Geometric Means Day 14 [3, 10]: 100.0% | Sheep Body Lice Efficacy Based on Geometric Means Day 21 [3, 10]: 100.0% | Sheep Body Lice Efficacy Based on Geometric Means Day 41/42 [3, 10]: 100.0% | Sheep Body Lice Efficacy Based on Geometric Means Day 84 [3, 10]: 100.0% | Sheep Body Lice Efficacy Based on Geometric Means Day 140 [3, 10]: 100.0% | Sheep Body Lice Efficacy Based on Geometric Means Day 7 [3, 11]: 86.6% | Sheep Body Lice Efficacy Based on Geometric Means Day 14 [3, 11]: 97.1% | Sheep Body Lice Efficacy Based on Geometric Means Day 21 [3, 11]: 99.2% | Sheep Body Lice Efficacy Based on Geometric Means Day 41/42 [3, 11]: 99.4% | Sheep Body Lice Efficacy Based on Geometric Means Day 84 [3, 11]: 99.9% | Sheep Body Lice Efficacy Based on Geometric Means Day 140 [3, 11]: 100.0% | viable lice eggs ([3]; 1 and 2 mg/kg, all three treatment times, out to 140 days post-treatment): no viable lice eggs were detected | lice or viable lice eggs found after challenge [4]: No lice or viable lice eggs were found | time until activity reached the required level ([5]; 1.0 mg/kg dose rate): ≤ 42 days post-treatment | Sheep Body Lice Efficacy Based on Geometric Means Day 7 ([5]; 1 mg/kg s.c.): 81.8% | Sheep Body Lice Efficacy Based on Geometric Means Day 14 ([5]; 1 mg/kg s.c.): 97.2% | Sheep Body Lice Efficacy Based on Geometric Means Day 21 ([5]; 1 mg/kg s.c.): 99.6% | Sheep Body Lice Efficacy Based on Geometric Means Day 42 ([5]; 1 mg/kg s.c.): 100.0% | Sheep Body Lice Efficacy Based on Geometric Means Day 84 ([5]; 1 mg/kg s.c.): 100.0% | Sheep Body Lice Efficacy Based on Geometric Means Day 140 ([5]; 1 mg/kg s.c.): 100.0% | time until efficacy reached the required level ([5]; 2.0 mg/kg dose rate): ≤ 14 days post-treatment | Sheep Body Lice Efficacy Based on Geometric Means Day 7 ([5]; 2 mg/kg s.c.): 95.2% | Sheep Body Lice Efficacy Based on Geometric Means Day 14 ([5]; 2 mg/kg s.c.): 100.0% | Sheep Body Lice Efficacy Based on Geometric Means Day 21 ([5]; 2 mg/kg s.c.): 100.0% | Sheep Body Lice Efficacy Based on Geometric Means Day 42 ([5]; 2 mg/kg s.c.): 100.0% | Sheep Body Lice Efficacy Based on Geometric Means Day 84 ([5]; 2 mg/kg s.c.): 100.0% | Sheep Body Lice Efficacy Based on Geometric Means Day 140 ([5]; 2 mg/kg s.c.): 100.0%
